Measured values as given in the supplement of paper PMC10307832.

What was measured:
Experiment in all cases: relative viability (nuclei count vs DMSO), 5 days (fraction); higher = more cells survive
[1] = compound: CN(c1ncccc1CNc1nc(Nc2ccc3c(c2)CC(=O)N3)ncc1C(F)(F)F)S(C)(=O)=O + CCNC(=O)c1noc(-c2cc(C(C)C)c(O)cc2O)c1-c1ccc(CN2CCOCC2)cc1 [Luminespib] (partner 0.01 µM)
How it was run: (§1)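 Lung cancer cell lines were pin-tool dosed in 1536-well plates on the day after seeding, with either a lone drug or a fixed anchor-drug dose plus five library-drug doses (not always all listed) in √10 steps. Nuclei were counted on 4× images after 5 days. Relative viability is the ratio of treated-well to vehicle-well nuclei counts, with each value a median of duplicate plates.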

[2] = compound: CN(c1ncccc1CNc1nc(Nc2ccc3c(c2)CC(=O)N3)ncc1C(F)(F)F)S(C)(=O)=O + C[C@]1(O)C[C@@H](c2nc(-c3ccc4ccc(-c5ccccc5)nc4c3)c3c(N)nccn32)C1 [Linsitinib] (partner 1 µM)
How it was run: as §1

[3] = compound: CN(c1ncccc1CNc1nc(Nc2ccc3c(c2)CC(=O)N3)ncc1C(F)(F)F)S(C)(=O)=O + COc1cccc2cc(-c3nc([C@H]4CC[C@H](C(=O)O)CC4)n4ncnc(N)c34)[nH]c12 [OSI-027] (partner 0.5 µM)
How it was run: as §1

[4] = compound: CN(c1ncccc1CNc1nc(Nc2ccc3c(c2)CC(=O)N3)ncc1C(F)(F)F)S(C)(=O)=O + CS(=O)(=O)CCNCc1ccc(-c2ccc3ncnc(Nc4ccc(OCc5cccc(F)c5)c(Cl)c4)c3c2)o1 [Lapatinib] (partner 2 µM)
How it was run: as §1

Cell Line | relative viability ([1]; first compound 0.01 µM) | relative viability ([1]; first compound 0.03162 µM) | relative viability ([1]; first compound 0.1 µM) | relative viability ([1]; first compound 0.3162 µM) | relative viability ([1]; first compound 1 µM) | relative viability ([2]; first compound 0.01 µM) | relative viability ([2]; first compound 0.03162 µM) | relative viability ([2]; first compound 0.1 µM) | relative viability ([2]; first compound 0.3162 µM) | relative viability ([2]; first compound 1 µM) | relative viability ([3]; first compound 0.01 µM) | relative viability ([3]; first compound 0.03162 µM) | relative viability ([3]; first compound 0.1 µM) | relative viability ([3]; first compound 0.3162 µM) | relative viability ([3]; first compound 1 µM) | relative viability ([4]; first compound 0.01 µM) | relative viability ([4]; first compound 0.03162 µM) | relative viability ([4]; first compound 0.1 µM) | relative viability ([4]; first compound 0.3162 µM) | relative viability ([4]; first compound 1 µM)
H3255 | 1.03 | 0.963 | 0.796 | 0.933 | 0.904 | 0.924 | 0.949 | 0.988 | 0.912 | 0.922 | 0.606 | 0.611 | 0.488 | 0.568 | 0.598 | 0.24 | 0.221 | 0.237 | 0.192 | 0.252
EPLC-272H | 0.6 | 0.487 | 0.265 | 0.317 | 0.251 | 1.21 | 1.12 | 1.22 | 1.33 | 1.12 | 0.276 | 0.294 | 0.305 | 0.344 | 0.279 | 0.921 | 0.914 | 0.884 | 0.965 | 1.09
PC-3 [JPC-3] | 0.719 | 0.788 | 0.792 | 0.665 | 0.636 | 0.984 | 1.01 | 0.938 | 0.925 | 0.835 | 0.722 | 0.742 | 0.739 | 0.805 | 0.768 | 0.441 | 0.395 | 0.446 | 0.471 | 0.432
NCI-H1793 | 0.218 | 0.181 | 0.212 | 0.175 | 0.138 | 0.883 | 0.929 | 0.894 | 0.857 | 0.601 | 0.238 | 0.276 | 0.246 | 0.288 | 0.297 | 0.542 | 0.654 | 0.79 | 0.575 | 0.691
EKVX | 0.923 | 1.03 | 0.839 | 0.869 | 0.786 | 0.94 | 1.13 | 0.85 | 0.931 | 0.882 | 0.757 | 0.711 | 0.618 | 0.685 | 0.614 | 0.182 | 0.188 | 0.218 | 0.119 | 0.514
ChaGo-K-1 | 0.479 | 0.629 | 0.635 | 0.706 | 0.556 | – | – | – | – | – | 0.537 | 0.566 | 0.544 | 0.538 | 0.659 | – | – | – | – | –
NCI-H23 | 0.182 | 0.204 | 0.207 | 0.228 | 0.207 | 0.598 | 0.695 | 0.549 | 0.678 | 0.723 | 0.735 | 0.55 | 0.625 | 0.769 | 0.547 | 1.26 | 1.25 | 1.11 | 1.21 | 0.987
EMC-BAC-2 | 1.16 | 1.27 | 1.17 | 1.16 | 0.994 | 0.797 | 0.838 | 0.792 | 0.79 | 0.804 | 0.377 | 0.364 | 0.339 | 0.418 | 0.371 | 0.956 | 0.902 | 0.876 | 0.899 | 0.838
LOU-NH91 | 0.322 | 0.366 | 0.313 | 0.351 | 0.355 | 0.988 | 1.02 | 1.02 | 1.08 | 1.11 | 0.714 | 0.82 | 0.685 | 0.823 | 0.801 | 0.777 | 0.714 | 0.73 | 0.743 | 0.741
LU99A | 0.316 | 0.264 | 0.323 | 0.325 | 0.246 | 0.582 | 0.552 | 0.609 | 0.537 | 0.656 | 0.284 | 0.279 | 0.27 | 0.277 | 0.352 | 0.971 | 1.19 | 1.01 | 1.17 | 1.08
NCI-H1395 | 0.766 | 0.703 | 0.682 | 0.558 | 0.658 | 0.939 | 1.12 | 0.981 | 1.1 | 1.2 | 0.657 | 0.606 | 0.671 | 0.738 | 0.721 | 0.934 | 0.974 | 0.998 | 1.23 | 1.19
NCI-H460 | 0.0312 | 0.0306 | 0.0284 | 0.0265 | 0.0325 | 0.79 | 1.17 | 0.785 | 0.628 | 0.788 | 0.666 | 0.964 | 0.691 | 0.705 | 0.665 | 1.11 | 1.65 | 0.963 | 0.964 | 1.02
201T | 1.05 | 1 | 0.945 | 0.986 | 0.951 | 1.05 | 1.04 | 1.04 | 1.01 | 0.995 | 0.658 | 0.702 | 0.741 | 0.663 | 0.648 | 1.08 | 1 | 0.962 | 0.924 | 0.988
NCI-H1944 | 0.779 | 0.926 | 0.818 | 0.732 | 0.828 | 1.22 | 1.18 | 1.16 | 1.13 | 1.28 | 0.401 | 0.445 | 0.38 | 0.453 | 0.439 | 0.815 | 0.898 | 0.782 | 0.869 | 0.792
NCI-H2405 | 0.791 | 0.723 | 0.622 | 0.464 | 0.52 | 0.899 | 0.935 | 0.818 | 0.865 | 0.824 | 0.617 | 0.676 | 0.572 | 0.51 | 0.533 | 1.16 | 1.08 | 0.995 | 1.02 | 0.91
NCI-H1703 | – | – | – | – | – | 0.692 | 0.647 | 0.756 | 0.836 | 0.637 | – | – | – | – | – | 1.05 | 1.13 | 1.27 | 1.41 | 1.01
NCI-H1755 | 0.531 | 0.41 | 0.479 | 0.389 | 0.419 | 0.997 | 0.951 | 0.961 | 0.979 | 0.908 | 0.708 | 0.789 | 0.737 | 0.678 | 0.699 | 1.09 | 1.08 | 1.01 | 0.961 | 0.957
